Consider 63 compounds from the OPERA property sets (Mansouri et al. 2018).

Structures are written as SMILES. ≈ marks a conversion by molar mass, not a printed value.

As a reminder, the logP is the decadic logarithm of the partition coefficient of the neutral form, usually between octanol and water. Consider `C[C@H](CSC(=O)c1ccccc1)C(=O)N1C[C@@H](Sc2ccccc2)C[C@H]1C(=O)O`, for which the lipophilicity (logP) was 4.4. In the case of `COP(=S)(OC)Oc1ccc(SC)cc1`, the logP came out at 3.74.

In the case of `CCOC(=O)c1ccccc1O`, the logP is 2.95. Same read-out and setting: the value for `Clc1cc(Cl)c(-c2ccc(Cl)c(Cl)c2Cl)cc1Cl` was 7.44. For `CCc1ccc(C=[N+]([O-])C(C)(C)C)cc1`, the logP came to 2.19. The same measure, in the same setting: the value for `O=C1CC2C(=O)NCC2CN1` (centres undefined) was -2.11.

As to `NS(=O)(=O)c1nn2c(=Nc3ccc(F)cc3)snc2s1`, the logP worked out at 2.81. Still for that read-out and setting: the value for `NC(N)=S` was -1.08; that for `COc1ccc(OCCN(C)C)cc1` was 1.23. `CNc1ncnc2c1ncn2C1OC(CO)CC1F` (centres undefined) had a log partition coefficient (logP) of 0.27. `CN1CCN(c2c(F)cc3c(=O)c(C(=O)O)cn(CCF)c3c2F)CC1` displayed a logP of 0.24.

Regarding `CCCCC(OC(Cc1ccccc1)C(=O)N1CCC(OCOC)CC1)C(=O)NC(CC1CCCCC1)C(O)CC(C(=O)NCCCNC(=NC#N)NC)C(C)C` (centres undefined), the logP amounted to 4.4. As to `Cc1ccc2oc(-c3ccccc3C(=O)O)c(Br)c2c1`, the log partition coefficient (logP) was found to be 5.19. In the case of `CC(CO)CO`, the logP is 0.24. Regarding `COc1cc(S(C)=O)ccc1-c1cn2cccnc2n1` (centres undefined), the lipophilicity (logP) was 0.63. Compound `OCCN1CC=C(c2ccccc2)CC1` displayed a log partition coefficient (logP) of 2. `CN1C(=O)CC[C@H]1c1cccnc1` displayed a logP of 0.07. The same measure, in the same setting: the value for `CCCCC(C)O` (centres undefined) was 1.76. `CNS(=O)(=O)Cc1ccc2[nH]cc(CCN(C)C)c2c1` came in with a lipophilicity (logP) of 0.93. `COc1ccc(S(=O)(=O)c2coc(S(N)(=O)=O)c2)cc1` came in with a logP of 1.17. As a reminder, the solubility is how much of the substance goes into solution per volume. Higher therefore signals a readily soluble substance. As for `c1ccc2sc(SN(C3CCCCC3)C3CCCCC3)nc2c1`, the logP was found to be 4.8 and the solubility stood at 0.163 µM (≈ 0.0564 µg/mL).

Compound `CC(C)CN(CC(C)C)N=O` displayed a logP of 2.34. For `Cn1cnc2c(N)ncnc21`, the lipophilicity (logP) was -0.03. Regarding `CCCCCCNC(=S)NC`, the log partition coefficient (logP) was found to be 2.31. Still for that read-out and setting: the result for `NS(=O)(=O)c1cc2cc(CNCCO)sc2s1` reads -0.72; that for `CCOC(=O)[C@@H](N)Cc1ccc(O)c(O)c1`, 0.28. Still for that read-out and setting: the value for `CCCCNCc1ccccc1` was 2.59.

With `CCOC(=O)[C@@H](N)Cc1ccc(O)cc1`, the lipophilicity (logP) came out at 0.72. On to `Cc1cn(C2CC(O)C(CO)O2)c(=O)[nH]c1=S` (centres undefined), for which the lipophilicity (logP) was -0.07.

Compound `C1=CCC=C1` gave a solubility of 27200 µM (≈ 1800 µg/mL). The compound `CNC(=O)CCc1c[nH]c2ccccc12` had a lipophilicity (logP) of 1.23. For `c1ccc(Cn2cncn2)cc1`, the log partition coefficient (logP) is 0.92.

In the case of `CC(=O)OCCOCn1cnc2c(=O)[nH]c(N)nc21`, the logP is -1.07. With `CC(=O)OCN1C(=O)C(C)=C(C)C1=O`, the log partition coefficient (logP) is 0.65. The same measure, in the same setting: the result for `CCOC(=O)c1ccccc1S(=O)(=O)NC(=O)Nc1nc(Cl)cc(OC)n1` reads 2.5; that for `O=C(OCCOCCOCCO)c1ccccc1`, 1.09; that for `CCCCC(OC(Cc1ccccc1)C(=O)N1CCC(OCOC)CC1)C(=O)NC(CC1CCCCC1)C(O)CC(C(=O)NCCCNc1n[nH]c(N)n1)C(C)C` (centres undefined), 4.3. Still for that read-out and setting: the value for `Brc1ccccc1-c1ccccc1` was 4.59. The compound `CCCOC(=O)NCCCN(C)C` registered a lipophilicity (logP) of 1.12. Still for that read-out and setting: the value for `N#CCCN(N)c1nc2cc(Cl)ccc2o1` was 1.72. On the same count and under the same terms, the value for `OCCC(F)(F)C(F)(F)C(F)(F)C(F)(F)C(F)(F)C(F)(F)C(F)(F)C(F)(F)F` was 5.58; that for `COc1ccccc1C=O` was 1.72.

`Cc1cc(Cl)c(Cl)cc1Cc1ccc(Cl)cc1Cl` yielded a logP of 7.41. `NCCc1nccs1` gave a logP of 0.16.

For `Cc1cccc(NC(=O)c2ccccc2C(=O)O)c1`, the solubility was determined as 3920 µM (≈ 1000 µg/mL). `Cc1cccc2[nH]ccc12` showed a logP of 2.54. On the same count and under the same terms, the result for `COc1c2occc2cc2ccc(=O)oc12` reads 2; that for `CCCNc1nc(C)nc(C(Cl)(Cl)Cl)n1`, 3.29. In turn, `COc1c(O)cc(C)c(O)c1OC` returned a logP of 1.05. `COc1cccc(N=c2snc3sc(S(N)(=O)=O)nn23)c1` had a logP of 2.66.

Take `CCCC(=NOCC)C1=C(O)CC(CC(C)SCC)CC1=O` (centres undefined): the log partition coefficient (logP) is 4.38. Same read-out and setting: the value for `CC(O)(C(=O)O)c1ccccc1` (centres undefined) was 0.8. On the same count and under the same terms, the result for `Clc1ccc2cccc(Cl)c2c1` reads 4.56. As for `CCOP(=S)(OCC)Oc1cc(C)nc(C(C)C)n1`, the solubility was 131 µM (≈ 40 µg/mL). Consider `CCC(O)(C(=O)O)c1ccc(CC(C)C)cc1` (centres undefined), for which the lipophilicity (logP) came to 3.37. On the same count and under the same terms, the result for `CCOP(=O)(CN(CCO)CCO)OCC` reads -0.72; that for `C1CCC(C2CO2)CC1` (centres undefined), 2.43.

Consider `NS(=O)(=O)c1cc2c(cc1Cl)NC(C1CC3C=CC1C3)NS2(=O)=O` (centres undefined), for which the logP came to 1.95. Consider `O=[N+]([O-])c1cncn1CCN1CCOCC1`, for which the logP was 0.07.

As to `CCCN(CC1CC1)c1c([N+](=O)[O-])cc(C(F)(F)F)cc1[N+](=O)[O-]`, the lipophilicity (logP) is 5.58. The same measure, in the same setting: the value for `Cc1ccc2oc(N(N)CCC#N)nc2c1` was 1.48; that for `CC(C)Oc1c(Br)c(Br)n(C)c1C(=O)Nc1nn[nH]n1` was 2.52; that for `CCCCC(=O)Oc1ccc(CC(N)C(=O)O)cc1` (centres undefined) was 0.07.
